Reference: patent US11939319B2, “Pyridinyl and pyrazinyl-(asa)indolsulfonamides” (UCB Pharma GmbH, priority 2018, dated 2024)

Assays:
GPR17 [1] = target: T1, GPR17 (Homo sapiens, UniProt Q13304); test: Calcium mobilization functional assay (Ca2+ assay) in CHO hGPR17 cells; format: cell-based; design: host or cells: Flp-In T-REx CHO cells, expression induced with doxycycline; settings: inhibition of 50 nM MDL29,951 (GPR17 agonist), activity range, read-out: Ca^2+ assay pIC50 (converted)
Procedure: (§1) Flp-In T-REx CHO cells stably expressing human GPR17 receptor (CHO hGPR17) from Evi Kostenis' lab (Bonn University, Germany) were cultured at 37° C. in a humidified atmosphere of 5% CO2. Cells were grown in DMEM with Nutrient Mixture F-12 supplemented with hygromycin B (500 μg/ml) and blasticidin (30 μg/ml). Expression from the Flp-In locus was induced by treatment with doxycycline (1 μg/ml) for 16-20 h prior assays.
GPR17 is a G-protein coupled receptor. GPR17 activation triggers Gq-type G-protein signaling resulting in endoplasmic reticulum calcium (Ca^2+) stores release in cytosol which can be measured using Calcium 5 dye, a fluorescent indicator dye of cytosolic Ca^2+ levels. The compounds of the present invention were assessed either in the Ca^2+ assay or in the GPR17 cAMP assay, described further below.
CHO hGPR17 were defrosted and seeded at a density of 20,000 cells per well into black 384-well plates with clear bottom. Cells were incubated overnight at 37° C. in a humidified atmosphere of 5% CO2. Sixteen to twenty hours after seeding, CHO hGPR17 were loaded for 60 min with Calcium 5 dye, a cytosolic Ca^2+ indicator fluorescent dye, according to manufacturer's instructions. Fluorescent signal relative to cytosolic Ca^2+ concentration was recorded over time at room temperature in FLIPR Tetra reader. Cells were first incubated for 30 minutes at room temperature in HBSS Hepes buffer pH 7.4 containing increasing concentrations of test compounds (typically 10^−11 M to 10^−6M). Then, 50 nM MDL29,951, a GPR17 agonist, was added to the cells. Inhibitory effects of varying concentrations test compounds were measured and resulting pIC50S were determined. All incubations were performed in duplicate and results were compared to a concentration response curve of GPR17 agonist and antagonist reference compounds. Analysis and curve fitting were performed in ActivityBase XE using XLfit 4-parameter logistic equation y=A+((B−A)/(1+((C/x)^D))) where A, B, C and D stand for minimum y, maximum y, IC50 and slope, respectively.
The activities of the Example compounds tested are depicted in the table 6 in Section B-IIB below. The activity ranges A, B and C refer to pIC50 values in the Ca^2+ assay as follows: “A”: pIC50 6.5≤x<7.5, “B”: pIC50 7.5≤x<8.5, “C”: 8.5≤pIC50

GPR17 [2] = target: T1, GPR17; test: cAMP accumulation functional assay (HTRF) in CHO hGPR17 cells; format: cell-based; design: host or cells: Flp-In T-REx CHO cells, expression induced with doxycycline; settings: Schild analysis against MDL29,951, 5 μM forskolin, activity range, read-out: cAMP assay pA2 (converted)
Procedure: as §1
GPR17 activation can also recruit Gi-type G-protein signaling, resulting in a decrease of intracellular cyclic adenosine monophosphate (cAMP). Intracellular cAMP changes can be measured using the HTRF cAMP dynamic assay kit from CisBio (Codolet, France). Using homogenous time-resolved fluorescence technology (HTRF), the assay is based on competition between native cAMP produced by cells and cAMP labelled with the dye d2. The tracer binding was determined by an anti-cAMP antibody labeled with cryptate.
CHO hGPR17 were detached with PBS containing EDTA and dispatched in black 384-well plates with 5,000 cells per well. Cells were first incubated for 30 minutes at room temperature in HBSS Hepes (pH 7.4) containing vehicle or varying concentrations of test GPR17 antagonist/inverse agonist compounds. Then, a dose response curve of MDL29,951 GPR17 agonist (typically from 10^−5M to 10^−10M) was added on vehicle and on each test GPR17 antagonist/inverse agonist compound concentration in a final volume of 20 μL HBSS Hepes buffer (pH 7.4) containing 1% DMSO, 5 μM forskolin and 0.1 mM IBMX. After 60 minutes incubation at room temperature, the reaction is terminated and the cells lysed by adding the d2 detection reagent and the cryptate reagent in 10 μL lysis buffer each according to manufacturer's instructions. After 60 minutes incubation, changes in cAMP concentrations are measured according to manufacturer's instructions using an Envision plate reader with laser excitation. All incubations were performed in duplicate. Data was analyzed using GraphPad Prism software using the 4-parameter logistic equation to measure MDL29,951 pEC50s in absence and presence of GPR17 antagonist/inverse agonist test compounds. Dose ratio (DR) were plotted against antagonist concentrations and Schild analysis provided estimated affinity pA2 of GPR17 antagonist/inverse agonist test compounds.
The activities of the Example compounds tested are depicted in the table below. The activity ranges A, B and C refer to pA2 values in the cAMP assay as follows: “A”: pA2 6.5≤x<7.5, “B”: pA2 7.5≤x<8.5, “C”: 8.5≤pA2.

T1 sequence (Q13304 29-367 limits assumed): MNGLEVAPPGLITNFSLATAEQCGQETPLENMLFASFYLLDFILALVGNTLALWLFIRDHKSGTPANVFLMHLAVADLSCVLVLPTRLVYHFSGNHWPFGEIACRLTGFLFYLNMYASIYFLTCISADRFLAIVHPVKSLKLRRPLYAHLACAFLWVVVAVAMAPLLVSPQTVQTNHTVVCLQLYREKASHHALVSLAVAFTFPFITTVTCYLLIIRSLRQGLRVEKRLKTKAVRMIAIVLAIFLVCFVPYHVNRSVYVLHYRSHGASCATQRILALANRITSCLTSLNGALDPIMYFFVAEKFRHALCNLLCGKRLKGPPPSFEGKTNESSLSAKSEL

IC50 (GPR17 [1])	Kb (GPR17 [2])	Structure (SMILES)
0.0316 to 0.316 µM	–	N#Cc1ccc(NS(=O)(=O)c2c[nH]c3cc(Cl)ccc23)cn1 [Example I-19, 6-chloro-N-(6-cyanopyridin-3-yl)-1H-indole-3-sulfonamide]
0.0316 to 0.316 µM	0.0316 to 0.316 µM	O=S(=O)(Nc1cnc(Br)cn1)c1c[nH]c2cc(Cl)ccc12 [Example I-18, N-(5-bromopyrazin-2-yl)-6-chloro-1H-indole-3-sulfonamide]
0.00316 to 0.0316 µM	≤ 0.00316 µM	COc1nc(Cl)c(F)cc1NS(=O)(=O)c1c[nH]c2cc(Cl)ccc12 [Example I-3, 6-chloro-N-(6-chloro-5-fluoro-2-methoxypyridin-3-yl)-1H-indole-3-sulfonamide]
0.00316 to 0.0316 µM	0.00316 to 0.0316 µM	COc1nc(F)c(NS(=O)(=O)c2c[nH]c3cc(Cl)ccc23)cc1F [Example I-5, 6-chloro-N-(2,5-difluoro-6-methoxypyridin-3-yl)-1H-indole-3-sulfonamide]
0.0316 to 0.316 µM	–	O=S(=O)(Nc1cnc(Cl)c(F)c1)c1c[nH]c2cc(Cl)ccc12 [Example I-23, 6-chloro-N-(6-chloro-5-fluoropyridin-3-yl)-1H-indole-3-sulfonamide]
0.0316 to 0.316 µM	–	COc1ccc(NS(=O)(=O)c2c[nH]c3cc(Cl)ccc23)c(Cl)n1 [Example I-8, 6-chloro-N-(2-chloro-6-methoxypyridin-3-yl)-1H-indole-3-sulfonamide]
0.0316 to 0.316 µM	–	O=S(=O)(Nc1ccc(Br)nc1)c1c[nH]c2cc(Cl)ccc12 [Example I-20, N-(6-bromopyridin-3-yl)-6-chloro-1H-indole-3-sulfonamide]
0.0316 to 0.316 µM	–	O=S(=O)(Nc1cc(F)cnc1F)c1c[nH]c2cc(Cl)ccc12 [Example I-1, 6-chloro-N-(2,5-difluoropyridin-3-yl)-1H-indole-3-sulfonamide]
0.0316 to 0.316 µM	–	COc1ncc(Cl)cc1NS(=O)(=O)c1c[nH]c2cc(Cl)ccc12 [Example I-17, 6-chloro-N-(5-chloro-2-methoxypyridin-3-yl)-1H-indole-3-sulfonamide]
0.0316 to 0.316 µM	–	COc1cc(NS(=O)(=O)c2c[nH]c3cc(Cl)ccc23)c(F)nc1Cl [Example I-4, 6-chloro-N-(6-chloro-2-fluoro-5-methoxypyridin-3-yl)-1H-indole-3-sulfonamide]
–	0.00316 to 0.0316 µM	O=S(=O)(Nc1cc(F)c(OCC(F)F)nc1F)c1c[nH]c2cc(C(F)F)ccc12 [Example I-52, N-[6-(2,2-difluoroethoxy)-2,5-difluoropyridin-3-yl]-6-(difluoromethyl)-1H-indole-3-sulfonamide]
–	≤ 0.00316 µM	COc1nc(OCCOC(F)F)c(F)cc1NS(=O)(=O)c1c[nH]c2cc(Cl)ccc12 [Example I-43, 6-chloro-N-[6-[2-(difluoromethoxy)ethoxy]-5-fluoro-2-methoxypyridin-3-yl]-1H-indole-3-sulfonamide]
–	≤ 0.00316 µM	COc1nc(OCCOC(F)F)c(F)cc1NS(=O)(=O)c1c[nH]c2nc(Cl)ccc12 [Example I-48, 6-chloro-N-[6-[2-(difluoromethoxy)ethoxy]-5-fluoro-2-methoxypyridin-3-yl]-1H-pyrrolo[2,3-b]pyridine-3-sulfonamide]
–	0.00316 to 0.0316 µM	COc1nc(OCCF)ccc1NS(=O)(=O)c1c[nH]c2cc(Cl)ccc12 [Example I-13, 6-chloro-N-[6-(2-fluoroethoxy)-2-methoxypyridin-3-yl]-1H-indole-3-sulfonamide]
–	0.00316 to 0.0316 µM	COc1nc(OCCF)c(F)cc1NS(=O)(=O)c1c[nH]c2nc(C(F)F)ccc12 [Example I-55, 6-(difluoromethyl)-N-[5-fluoro-6-(2-fluoroethoxy)-2-methoxypyridin-3-yl]-1H-pyrrolo[2,3-b]pyridine-3-sulfonamide]
–	0.00316 to 0.0316 µM	COc1ccc(NS(=O)(=O)c2c[nH]c3cc(Cl)ccc23)c(OCC(F)F)n1 [Example I-39, 6-chloro-N-[2-(2,2-difluoroethoxy)-6-methoxypyridin-3-yl]-1H-indole-3-sulfonamide]
–	0.00316 to 0.0316 µM	COc1nc(OC(F)F)ccc1NS(=O)(=O)c1c[nH]c2nc(Cl)ccc12 [Example I-37, 6-chloro-N-[6-(difluoromethoxy)-2-methoxy-3-pyridyl]-1H-pyrrolo[2,3-b]pyridine-3-sulfonamide]
–	≤ 0.00316 µM	COc1nc(OCC(F)F)c(F)cc1NS(=O)(=O)c1c[nH]c2nc(Cl)ccc12 [Example I-46, 6-chloro-N-[6-(2,2-difluoroethoxy)-5-fluoro-2-methoxypyridin-3-yl]-1H-pyrrolo[2,3-b]pyridine-3-sulfonamide]
–	≤ 0.00316 µM	COc1nc(OC(F)F)c(F)cc1NS(=O)(=O)c1c[nH]c2cc(Cl)ccc12 [Example I-9, 6-chloro-N-[6-(difluoromethoxy)-5-fluoro-2-methoxypyridin-3-yl]-1H-indole-3-sulfonamide]
0.0316 to 0.316 µM	–	O=S(=O)(Nc1ccc(Cl)nc1)c1c[nH]c2cc(Cl)ccc12 [Example I-24, 6-chloro-N-(6-chloropyridin-3-yl)-1H-indole-3-sulfonamide]
0.0316 to 0.316 µM	–	COc1ccc(NS(=O)(=O)c2c[nH]c3c2ccc2ccccc23)c(OC)n1 [Example I-70, N-(2,6-dimethoxypyridin-3-yl)-1H-benzo[g]indole-3-sulfonamide]
–	0.00316 to 0.0316 µM	O=S(=O)(Nc1cc(F)c(C2CC2)nc1F)c1c[nH]c2cc(Cl)ccc12 [Example I-41, 6-chloro-N-(6-cyclopropyl-2,5-difluoropyridin-3-yl)-1H-indole-3-sulfonamide]
–	0.0316 to 0.316 µM	COc1nc(Cl)ccc1NS(=O)(=O)c1c[nH]c2nc(Cl)ccc12 [Example I-35, 6-chloro-N-(6-chloro-2-methoxypyridin-3-yl)-1H-pyrrolo[2,3-b]pyridine-3-sulfonamide]
–	≤ 0.00316 µM	COc1nc(OCCOC(F)F)c(F)cc1NS(=O)(=O)c1c[nH]c2nc(C(F)F)ccc12 [Example I-58, N-[6-[2-(difluoromethoxy)ethoxy]-5-fluoro-2-methoxypyridin-3-yl]-6-(difluoromethyl)-1H-pyrrolo[2,3-b]pyridine-3-sulfonamide]
–	≤ 0.00316 µM	COc1nc(OCC(F)F)c(F)cc1NS(=O)(=O)c1c[nH]c2cc(Cl)ccc12 [Example I-42, 6-chloro-N-[6-(2,2-difluoroethoxy)-5-fluoro-2-methoxypyridin-3-yl]-1H-indole-3-sulfonamide]
–	≤ 0.00316 µM	COc1nc(OC(F)F)c(F)cc1NS(=O)(=O)c1c[nH]c2cc(C(F)F)ccc12 [Example I-16, N-[6-(difluoromethoxy)-5-fluoro-2-methoxypyridin-3-yl]-6-(difluoromethyl)-1H-indole-3-sulfonamide]
–	≤ 0.00316 µM	COc1nc(OCC(F)F)c(F)cc1NS(=O)(=O)c1c[nH]c2nc(C(F)F)ccc12 [Example I-54, N-[6-(2,2-difluoroethoxy)-5-fluoro-2-methoxypyridin-3-yl]-6-(difluoromethyl)-1H-pyrrolo[2,3-b]pyridine-3-sulfonamide]
